US6670339B1, “Use of sulfated oligosaccharides in lowering blood triglyceride levels” (The Australian National University, priority 1997, dated 2003)
Where two headings read alike, the source gives them in different places.

Legend:
[1] = biological target: T1, bovine milk lipoprotein lipase (Bos taurus, UniProt P11151); experiment: Inhibition of binding of biotinylated heparin/heparan sulfate to immobilised lipoprotein lipase; settings: for inhibitory activity on lipoprotein lipase binding to heparin/heparan sulfate, in words: summary of Table 1
T1 construct: purified from bovine milk as previously described; from tissue; host or cells: bovine milk
T1 sequence (P11151 29-478): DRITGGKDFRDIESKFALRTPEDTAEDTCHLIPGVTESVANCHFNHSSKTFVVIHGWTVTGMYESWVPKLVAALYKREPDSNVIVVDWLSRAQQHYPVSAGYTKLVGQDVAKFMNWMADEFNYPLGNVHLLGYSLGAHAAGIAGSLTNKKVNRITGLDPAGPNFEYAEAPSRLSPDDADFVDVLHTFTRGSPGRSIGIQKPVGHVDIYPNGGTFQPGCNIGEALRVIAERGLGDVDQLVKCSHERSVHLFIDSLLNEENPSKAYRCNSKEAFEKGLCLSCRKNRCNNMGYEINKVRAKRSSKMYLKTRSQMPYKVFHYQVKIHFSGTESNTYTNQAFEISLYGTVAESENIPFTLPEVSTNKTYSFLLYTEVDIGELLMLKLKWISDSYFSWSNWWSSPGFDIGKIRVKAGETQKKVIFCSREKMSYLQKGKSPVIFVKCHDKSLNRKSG
Description: As a more rapid and direct means of measuring the ability of different sulfated oligosaccharides to release lipoprotein lipase from the endothelium, an in vitro assay for this effect was developed. The assay involved immobilising lipoprotein lipase (10 μg/ml in PBS, 15 hr, 4° C.), purified from bovine milk as previously described^12, in 96 well plastic microplates (50 μl/well). Non-specific binding sites were then blocked by the addition of 200 μl/well of PBS containing 1% (w/v) bovine serum albumin (BSA) for 2 hr at 4° C. Following three washes with 200 μl/well of PBS/0.05% Tween 20 (PBST), 50 μl/well of either biotinylated bovine lung heparin or biotinylated porcine mucosal heparan sulfate (Sigma), used at either 1 or 10 μg/ml, was added and incubated for 2 hr at 4° C. Following three washes with PBST, 50 μl/well of europeum-streptavidin (1 ng/ml in PBS/1% BSA) was added for 1 hr at 4° C., the plate again washed three times with PBST, enhancement solution (50 μl/well) added and bound europeum measured by time resolved fluorescence detection using a Delfia Research Fluorometer (Wallac, Turku, Finland). Inhibition assays measured the ability of different sulfated oligosacchandes to inhibit the binding of biotinylated heparan/heparin sulfate to the immobilised lipoprotein lipase enzyme.

[2] = tested on: serum triglyceride levels; experiment: Serum triglyceride lowering by glycosaminoglycans and sulfated oligosaccharides in mice; format: in vivo, CBA/h female mice; settings: 50 mg/kg s.c., 2 hours after injection
Description: FIG. 3. Ability of different glycosaminoglycans and sulfated oligosaccharides to lower serum triglyceride levels in CBA mice. Compounds were injected s.c. at a dose of 50 mg/kg, blood samples taken 2 hours later and assayed for triglyceride content. Each histogram is the mean±SEM (n=3) for each treatment.
Mice (CBA/h female mice 8-10 weeks old) were injected s.c. with a range of glycosaminoglycans and sulfated oligosaccharides at a dose of 50 mg/kg and 2 hours later mice were anaesthetised, blood was collected via cardiac puncture and allowed to clot and serum triglyceride levels measured using a commercially available kit (Sigma, Triglyceride—GPO-Trinder). […] The only other compound with some activity was suramin, a sulfonated compound which has previously been used as an angiogenesis and heparanase inhibitor.

[3] = biotinylated bovine lung heparin 1 μg/ml
[4] = biotinylated bovine lung heparin 10 μg/ml

IC50, inhibition of binding of Biotinylated Heparin (1 μg/ml) to lipoprotein lipase [1, 3] [µg/mL] | IC50, inhibition of binding of Biotinylated Heparin (10 μg/ml) to lipoprotein lipase [1, 4] [µg/mL] | inhibitory activity on lipoprotein lipase binding to heparin/heparan sulfate, in words [1] | IC50 ([1]; biotinylated bovine lung heparin 1 μg/ml, read-out: IC50, inhibition of binding of Biotinylated Heparin (1 μg/ml) to lipoprotein lipase) [µM] | IC50 ([1]; biotinylated bovine lung heparin 10 μg/ml, read-out: IC50, inhibition of binding of Biotinylated Heparin (10 μg/ml) to lipoprotein lipase) [µM] | Compound | effect on serum triglyceride levels, in words [2]
3 | 12 | inhibitory |  |  | maltoheptaose sulfate [Maltoheptaose SO4] | significantly lowered triglyceride levels
3 | 6 | potent inhibitors |  |  | maltohexaose sulfate [Maltohexaose SO4] | significantly lowered triglyceride levels

Further lines, the compound ahead of its results:

Compound | IC50, inhibition of binding of Biotinylated Heparin (1 μg/ml) to lipoprotein lipase [1, 3] [µg/mL] | IC50, inhibition of binding of Biotinylated Heparin (10 μg/ml) to lipoprotein lipase [1, 4] [µg/mL] | inhibitory activity on lipoprotein lipase binding to heparin/heparan sulfate, in words [1] | IC50 ([1]; biotinylated bovine lung heparin 1 μg/ml, read-out: IC50, inhibition of binding of Biotinylated Heparin (1 μg/ml) to lipoprotein lipase) [µM] | IC50 ([1]; biotinylated bovine lung heparin 10 μg/ml, read-out: IC50, inhibition of binding of Biotinylated Heparin (10 μg/ml) to lipoprotein lipase) [µM] | effect on serum triglyceride levels, in words [2]
Cc1ccc(C(=O)Nc2ccc(S(=O)(=O)O)c3cc(S(=O)(=O)O)cc(S(=O)(=O)O)c23)cc1NC(=O)c1cccc(NC(=O)Nc2cccc(C(=O)Nc3cc(C(=O)Nc4ccc(S(=O)(=O)O)c5cc(S(=O)(=O)O)cc(S(=O)(=O)O)c45)ccc3C)c2)c1 [Suramin, reference compound] |  |  | lacked activity | > 77.1 | > 77.1 | some activity
O=S(=O)(O)OC[C@H]1O[C@@](COS(=O)(=O)O)(O[C@H]2O[C@H](COS(=O)(=O)O)[C@@H](OS(=O)(=O)O)[C@H](OS(=O)(=O)O)[C@H]2OS(=O)(=O)O)[C@@H](OS(=O)(=O)O)[C@@H]1OS(=O)(=O)O [Sucrose octasulfate, reference compound] | >200 |  | lacked activity |  |  | small but significant enhancement
Cellohexaose |  | 12 | exhibited activity |  |  | 
